Assay results published in PubChem BioAssay (NCI).
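Results reflect a 48-hour exposure of cells in 96-well plates to compound at five concentrations. Abbreviation: GI50, concentration required for 50% inhibition of growth. The concentration for full growth arrest is given as TGI.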

Key:
Experiment in all cases: NCI-60 cell line screen, 48 h; in the data active means GI50 below about 0.43 µM; inactive means the rest
DU-145 prostate = test system: DU-145 prostate
OVCAR-3 ovarian = test system: OVCAR-3 ovarian
NCI-H23 lung = test system: NCI-H23 lung
RXF 393 renal = test system: RXF 393 renal
A498 renal = test system: A498 renal
SF-539 CNS = test system: SF-539 CNS
EKVX NSCLC = test system: EKVX NSCLC
U251 CNS = test system: U251 CNS
COLO 205 colon = test system: COLO 205 colon
SR leukemia = test system: SR leukemia

C=C(CO)[C@@H]1CC[C@]2(COC3CCCCO3)CC[C@]3(C)[C@H](CC[C@@H]4[C@@]5(C)C=C(C=O)C(=O)C(C)(C)[C@@H]5CC[C@]43C)[C@@H]12 (stereo not given in full)
active: GI50 (OVCAR-3 ovarian) 0.207 µM | GI50 (NCI-H23 lung) 0.311 µM | GI50 (RXF 393 renal) 0.172 µM | GI50 (A498 renal) 0.234 µM | GI50 (SF-539 CNS) 0.196 µM | GI50 (EKVX NSCLC) 0.259 µM | GI50 (U251 CNS) 0.209 µM | GI50 (COLO 205 colon) 0.273 µM
0.938 µM: TGI (A498 renal)
0.833 µM: TGI (COLO 205 colon)
0.334 µM: TGI (RXF 393 renal)
1.72 µM: TGI (DU-145 prostate)
0.856 µM: TGI (EKVX NSCLC)
0.546 µM: TGI (U251 CNS)
0.428 µM: TGI (OVCAR-3 ovarian) | TGI (SF-539 CNS)
inactive: GI50 (DU-145 prostate) 0.523 µM
1.02 µM: TGI (NCI-H23 lung)

CCOC(=O)c1cnc2sc3ccc4ccccc4c3n2c1=O
> 100 µM: TGI (OVCAR-3 ovarian) | TGI (NCI-H23 lung) | TGI (RXF 393 renal) | TGI (SR leukemia) | TGI (SF-539 CNS) | TGI (EKVX NSCLC) | TGI (U251 CNS) | TGI (COLO 205 colon)

CC(=O)c1c(CO[N+](=O)[O-])n([O-])c2ccccc2[n+]1=O
> 100 µM: TGI (DU-145 prostate) | TGI (OVCAR-3 ovarian) | TGI (NCI-H23 lung) | TGI (SR leukemia) | TGI (SF-539 CNS) | TGI (EKVX NSCLC) | TGI (U251 CNS) | TGI (COLO 205 colon)

O=C(O)c1c(=O)cccc2ssc12
3.12 µM: TGI (EKVX NSCLC)
3.73 µM: TGI (DU-145 prostate)
3.91 µM: TGI (COLO 205 colon)
3.39 µM: TGI (RXF 393 renal)
3.84 µM: TGI (SF-539 CNS)
3.38 µM: TGI (OVCAR-3 ovarian)
inactive: GI50 (DU-145 prostate) 1.92 µM | GI50 (OVCAR-3 ovarian) 1.81 µM | GI50 (NCI-H23 lung) 1.75 µM | GI50 (RXF 393 renal) 1.91 µM | GI50 (A498 renal) 1.98 µM | GI50 (SF-539 CNS) 1.98 µM | GI50 (EKVX NSCLC) 1.35 µM | GI50 (U251 CNS) 1.74 µM | GI50 (COLO 205 colon) 2 µM
3.45 µM: TGI (NCI-H23 lung)
3.16 µM: TGI (U251 CNS)
3.54 µM: TGI (A498 renal)

O=C(O/N=C1/CCC/C1=C\c1ccccc1)c1ccc(Cl)c(Cl)c1
> 100 µM: TGI (OVCAR-3 ovarian) | TGI (NCI-H23 lung) | TGI (RXF 393 renal) | TGI (SR leukemia) | TGI (A498 renal) | TGI (SF-539 CNS) | TGI (EKVX NSCLC) | TGI (U251 CNS) | TGI (COLO 205 colon)

CCOC(=O)c1cnc2c(ccc3ncccc32)c1NCCCN(CC)CC
> 100 µM: TGI (OVCAR-3 ovarian) | TGI (NCI-H23 lung) | TGI (A498 renal) | TGI (EKVX NSCLC) | TGI (U251 CNS) | TGI (COLO 205 colon)

O=C1OC(=O)C2CCCC3CCCC1C32 (stereo not given)
> 100 µM: TGI (DU-145 prostate) | TGI (OVCAR-3 ovarian) | TGI (NCI-H23 lung) | TGI (RXF 393 renal) | TGI (A498 renal) | TGI (SF-539 CNS) | TGI (EKVX NSCLC) | TGI (U251 CNS) | TGI (COLO 205 colon)

C/C=C(\CCOS(=O)(=O)c1ccc(C)cc1)[Si](C)(C)C
> 100 µM: TGI (OVCAR-3 ovarian) | TGI (NCI-H23 lung) | TGI (RXF 393 renal) | TGI (SR leukemia) | TGI (A498 renal) | TGI (SF-539 CNS) | TGI (EKVX NSCLC) | TGI (U251 CNS) | TGI (COLO 205 colon)

O=C(CCn1[nH]c(=O)c(Cl)c(Cl)c1=O)NNC(=O)C[n+]1ccccc1
> 100 µM: TGI (OVCAR-3 ovarian) | TGI (NCI-H23 lung) | TGI (RXF 393 renal) | TGI (A498 renal) | TGI (SF-539 CNS) | TGI (EKVX NSCLC) | TGI (COLO 205 colon)

CC1(N)CCN(c2cnc(-c3cccc(Cl)c3Cl)c(N)n2)CC1
inactive: GI50 (DU-145 prostate) 56.5 µM | GI50 (OVCAR-3 ovarian) 35.1 µM | GI50 (NCI-H23 lung) 5.99 µM | GI50 (SR leukemia) 7.6 µM | GI50 (A498 renal) 2.49 µM | GI50 (SF-539 CNS) 12.9 µM | GI50 (EKVX NSCLC) 2.58 µM | GI50 (U251 CNS) 9.02 µM | GI50 (COLO 205 colon) 16.9 µM
> 100 µM: TGI (DU-145 prostate) | TGI (OVCAR-3 ovarian) | TGI (NCI-H23 lung) | TGI (EKVX NSCLC)
12 µM: TGI (A498 renal)
35.5 µM: TGI (COLO 205 colon)
80 µM: TGI (SR leukemia)
91.2 µM: TGI (U251 CNS)
31.5 µM: TGI (SF-539 CNS)
